Patent US20070059687A1, “Process for evaluating phagocytotic function and use thereof” (priority 2001, published 2007)

Assays:
digested samples = assay: Influence of surfactant added to hybridization solution on signal detection; assay type: cell-based; conditions: for detection sensitivity: surfactant added to the probe dilution solution, SDS 0.25%
Description: A solution containing 15 ng of a digoxigenin labelled DNA probe prepared with a probe dilution solution (including 0.25% SDS, 600 μl of salmon sperm DNA, 50 μl of 100× Denhardt's solution, 500 μl of a hybridization stock solution, 2250 μl of formamide, 1000 μl 50% dextran sulfate) is coated on the smeared site, and the slide was left to stand still in a humid box at 37° C. to 42° C. for 2 hours. A probe solution without including SDS was determined as a control. The digoxigenin labelled DNA probe was produced by a nick translation method. Thereafter, a hybridization washing solution (prepared by mixing a hybridization stock solution (13.15 g of sodium chloride, 6.615 g of trisodium citrate dihydrate, adjusted to give the total volume of 75 ml with sterile purified water) in a ratio of the hybridization stock solution:sterile purified water:formamide=5:4:50) was provided in three staining bottles, and sequentially the sample was immersed at 42° C. for 10 minutes, respectively.
The digested samples produced according to the process described in Example 17(1) and [2] were used as specimens. […] In addition, the detection sensitivity could be improved by lauryl sarcosine, BRIJ 35 or Tween 20.

[1] = tested on: specimen A-SA (Staphylococcus aureus); assay: In situ hybridization of clinical blood specimens of patients suspected of sepsis; assay type: cell-based; conditions: 0.25% SDS added to probe dilution solution, FIG. 1
Description: As clinical specimens, 12 specimens of blood collected from patients suspected as suffering from sepsis (specimens A to L) were used. Ten ml of heparinized venous blood was collected from each patient, and after admixing the blood with a reagent for separating blood (225 mg of sodium chloride, 1.5 g of dextran (MW: 200,000-300,000)), adjusted to give the total volume of 25 ml with sterile purified water) at a ratio of 4:1, a leukocyte fraction (upper layer) was obtained by leaving to stand still at 37° C. for 30 minutes. […] The slide glass was immersed in PBS for 10 minutes, and thereafter, in a solution of an enzyme pretreatment reagent (prepared by mixing 1.25 g of saponin, 1.25 ml of t-octylphenoxypolyethoxyethanol (specific gravity: 1.068 to 1.075 (20/4° C.), pH (5 w/v %) 5.5-7.5) and 25 ml of the PBS stock solution, and adjusting to give the total volume of 50 ml with sterile purified water) diluted to 10 fold in sterile purified water, and allowing infiltration on a shaker for 10 minutes. […] Then, it was immersed in PBS containing 0.2 mol/l hydrochloric acid (prepared by adding hydrochloric acid to the PBS stock solution, 20 fold dilution in sterile purified water, and adjusting to give the final concentration of hydrochloric acid of 0.2 mol/l) and allowed infiltration on a shaker for 10 minutes as it was. […] A probe solution without including SDS was determined as a control. […]

EF digested sample = assay: Enzymatic treatment of digested sample, bacterial bodies in leukocytes by acridine orange staining; assay type: cell-based, Enterococcus faecalis; conditions: N-acetylmuramidase fixed at 100 unit/ml
Description: Using the slide glass having each digested sample smeared thereon, the enzymatic pretreatment was performed according to the process described in Example 3. Next, the slide glass after completing the enzymatic pretreatment was placed in a humid box, and the reaction was allowed by dropping 1 ml of each enzyme solution prepared to give each titer on the smeared site of the specimen. Thereafter, the slide glass was immersed in PBS containing 0.2 mol/l hydrochloric acid, and in 70% ethanol respectively, for 10 minutes, and air dried. After immersing this slide glass in PBS containing 70 mmol/l sodium hydroxide for 3 minutes, and in 70% ethanol for 10 minutes, it was air dried and stained with 1% acridine orange staining solution. Then, evaluation was made with a fluorescence microscope (×1,000). For Staphylococcus aureus and Staphylococcus epidermidis, examination of the optimal titer was conducted with lysostafin. […] The determination was made as adequate when no bacterial body was identified in the leukocytes by the enzymatic treatment.
Using a slide glass including each digested sample smeared thereon, examination was conducted according to the process described in example 17 (2). Time period of the enzymatic treatment in this test was 30 minutes, and the temperature for examination was 4° C., 25° C., 37° C., 42° C., and 60° C.
Using the slide glass including each digested sample smeared thereon, examination was conducted according to the process described in example 17 (2). […] Determination was conducted according to the process described in example 17 (2).

Micrococcus luteus = assay: Lysis evaluated by decrease in turbidity at 600 nm; assay type: cell-based; conditions: lysozyme 10,000 unit/ml
Description: (§1) Enterococcus faecalis was inoculated in 50 ml of the aforementioned BHI liquid medium, and cultured at 37° C. for 8 hours or longer. This culture liquid was centrifuged at 4° C. for 10 minutes at 2,000×g to collect the bacteria, followed by subjecting to a heat treatment in an autoclave (120° C., for 10 minutes) after suspending in PBS. Next, the suspension was centrifuged at 4° C. for 10 minutes at 2,000×g, and the supernatant was discarded. Precipitates were suspended in 1 ml of PBS, and thereafter, subjected to freeze-drying. This freeze-dried sample was suspended in 5 mmol/l Tris-hydrochloric acid (pH 6.0), 2 mmol/l magnesium chloride containing 0 to 10% DMSO to give the samples for N-acetylmuramidase. Further, Micrococcus luteus (JCM1464) was inoculated in 5 ml of BHI liquid medium (supra), and cultured at 37° C. for 8 hours or longer. The cultured bacterial liquid was centrifuged at 4° C. for 10 minutes at 2,000×g to collect the bacteria. After discarding the supernatant, and suspending and washing the bacterial pellet with 5 ml of PBS, centrifugation was conducted once again at 4° C. for 10 minutes at 2,000×g to collect the bacteria. […] Enzymatic activity was evaluated on the basis of the decrease in turbidity of the sample at the absorbance of 600 nm using a microplate reader. […] Additionally, no decrease in enzymatic activity was found with DMSO at the concentration of 2% or less. […] The results are show in FIG. 4(a) to (c) and Table 3 below.

Enterococcus faecalis = assay: Lysis evaluated by decrease in turbidity at 600 nm; assay type: cell-based
Description: (§2) Conditions for the enzyme to lyse Staphylococcus aureus (ATCC 12600), Staphylococcus epidermidis (ATCC 14990), Pseudomonas aeruginosa (ATCC 10145), Enterococcus faecalis (ATCC 19433) and Escherichia coli (ATCC 11775) were studied. For Staphylococcus aureus and Staphylococcus epidermidis, lysostafin was used as the lytic enzyme (Bur. J. Biochem., 38, 293-300, 1973). […] Further, for Pseudomonas aeruginosa and Escherichia coli, PBS containing 70 mmol/l sodium hydroxide was used. Each type of these bacteria was inoculated in 5 ml of BHI (Brain Heart Infusion) liquid medium (manufactured by DIFCO), and cultured at 37° C. for 8 hours or longer. Thus cultured bacterial liquid was collected by centrifugation at 4° C. for 10 minutes at 2,000×g. The collected bacteria were suspended in PBS to give a sample.
(§3) Lysis was evaluated by decrease in turbidity of the bacterial liquid at the absorbance of 600 nm using a microplate reader. Consequently, Staphylococcus aureus and Staphylococcus epidermidis were lysed by lysostafin. In respect of Pseudomonas aeruginosa and Escherichia coli, no enzymatic treatment was required because lysis was conducted with PBS containing 70 mmol/l sodium hydroxide. […] Moreover, when the bacterium incorporated upon phagocytotic action is for example, Pseudomonas aeruginosa, Escherichia coli or the like, bacterial cell wall is lysed during the alkaline treatment to result in the state in which the gene is exposed. Therefore, it is not necessary to conduct this enzymatic treatment. Each enzyme for the pretreatment which is used in lysis of the foreign microorganism according to the present invention is effective not only for the aforementioned bacterial strain, but also for other bacterial strain that includes other genus staphylococcus, genus streptococcus, genus bacillus, genus micrococcus and the like. […] The results are illustrated in FIG. 3, specifically, in regard to: (a) Staphylococcus aureus and Staphylococcus epidermidis, (b) Pseudomonas aeruginosa and Escherichia coli, and (c) Enterococcus faecalis.
as §1

[2] = tested on: Staphylococcus epidermidis; assay: Lysis evaluated by decrease in turbidity at 600 nm; assay type: cell-based; conditions: lysostafin 50 unit/ml
Description: as §2, §3, §1

For CCCCCCCCCCCCOS(=O)(=O)[O-].[Na+] [SDS, sodium dodecyl sulfate], the preferable concentration (digested samples; SDS at various concentrations) was at most 1%, the detection sensitivity (digested samples) was “dramatically enhanced” and the “detection sensitivity of the signal” value [1] was “markedly elevated”.

For “lysozyme: lytic enzyme (Seikagaku Corporation)”, the enzymatic treatment determination (EF digested sample; lysozyme titer 10 U/mL) was “inadequate”, the enzymatic treatment determination (EF digested sample; lysozyme titer 100 U/mL) was “inadequate” and the enzymatic treatment determination (EF digested sample; lysozyme titer 1,000 U/mL) was “inadequate”. The enzymatic treatment determination (EF digested sample; lysozyme titer 10,000 U/mL) was “adequate”, the enzymatic treatment determination (EF digested sample; lysozyme titer 100,000 U/mL) was “adequate” and the “Decrease in turbidity of bacteria” value (Micrococcus luteus; added DMSO 0 % (control)) was 0.689 ± 0.028 O.D./3 minutes. The “Decrease in turbidity of bacteria” value (Micrococcus luteus; added DMSO 0.1 %) was 0.678 ± 0.026 O.D./3 minutes, the “Decrease in turbidity of bacteria” value (Micrococcus luteus; added DMSO 1 %) was 0.660 ± 0.026 O.D./3 minutes and the “Decrease in turbidity of bacteria” value (Micrococcus luteus; added DMSO 2 %) was 0.653 ± 0.024 O.D./3 minutes. For the same molecule, the “Decrease in turbidity of bacteria” value (Micrococcus luteus; added DMSO 5 %) was 0.566 ± 0.017 O.D./3 minutes, the “Decrease in turbidity of bacteria” value (Micrococcus luteus; added DMSO 10 %) was 0.464 ± 0.016 O.D./3 minutes and the lytic activity (Enterococcus faecalis; lysozyme in combination with N-acetylmuramidase versus N-acetylmuramidase alone, FIG. 3(c)) was “more excellent lytic activity”.

In the case of CCCCCCCCCCCCN(C)CC(=O)O [Lauryl sarcosine], the detection sensitivity (digested samples) was “improved”.

In the case of C[S+](C)[O-] [DMSO, dimethylsulfoxide], the “DMSO concentration at which decrease in activity was found” value (Micrococcus luteus) was at least 5%, the “DMSO concentration at which no decrease in enzymatic activity was found” value (Micrococcus luteus) was at most 2% and the “DMSO concentration at which decrease in activity was found” value [2] was at least 5%. The “DMSO concentration at which no decrease in enzymatic activity was found” value [2] was at most 2% and the “influence on N-acetylmuramidase activity” value (Enterococcus faecalis; DMSO 0 to 10%, N-acetylmuramidase 300 unit/ml) was “hardly influenced”.
